Data published in the supplement of paper PMC10307832.

Assays:
Experiment in all cases: relative viability (nuclei count vs DMSO), 5 days (fraction); higher = more cells survive
A549 = system: A549
Procedure, shortened: (§1)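 Relative viability equals treated-well nuclei counts divided by vehicle-well nuclei counts. Counts came from 4× images of lung cancer cell lines grown in 1536-well plates for 5 days after pin-tool dosing on the day after seeding. Dosing used one drug alone or a fixed anchor-drug dose plus five library-drug doses (not always all listed) in √10 steps, and values are medians of duplicate plates.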

Calu-6 = system: Calu-6
Procedure, shortened: as §1

EBC-1 = system: EBC-1
Procedure, shortened: as §1

IA-LM = system: IA-LM
Procedure, shortened: as §1

NCI-H1299 = system: NCI-H1299
Procedure, shortened: as §1

NCI-H1703 = system: NCI-H1703
Procedure, shortened: as §1

NCI-H2126 = system: NCI-H2126
Procedure, shortened: as §1

COc1cc(N2CCC(C(N)=O)CC2)ccc1Nc1nc(N)c(Cl)c(Nc2ccccc2S(=O)(=O)C(C)C)n1 [HG-5-88-01] + C[C@]1(O)C[C@@H](c2nc(-c3ccc4ccc(-c5ccccc5)nc4c3)c3c(N)nccn32)C1 [Linsitinib] (partner 1 µM) gave a relative viability (A549; first compound 0.04 µM) of 0.59, a relative viability (A549; first compound 0.1265 µM) of 0.771 and a relative viability (A549; first compound 0.4 µM) of 0.634. It also gave a relative viability (A549; first compound 1.265 µM) of 0.432, a relative viability (A549; first compound 4 µM) of 0.796 and a relative viability (Calu-6; first compound 0.04 µM) of 0.938. For the same compound, the relative viability (Calu-6; first compound 0.1265 µM) was 0.837, the relative viability (Calu-6; first compound 0.4 µM) was 0.95 and the relative viability (Calu-6; first compound 1.265 µM) was 0.929. The relative viability (Calu-6; first compound 4 µM) was 1.02, the relative viability (EBC-1; first compound 0.04 µM) was 0.892 and the relative viability (EBC-1; first compound 0.1265 µM) was 0.373. The relative viability (EBC-1; first compound 0.4 µM) was 0.924, the relative viability (EBC-1; first compound 1.265 µM) was 0.847 and the relative viability (EBC-1; first compound 4 µM) was 0.927. It also gave a relative viability (IA-LM; first compound 0.04 µM) of 0.602, a relative viability (IA-LM; first compound 0.1265 µM) of 0.383 and a relative viability (IA-LM; first compound 0.4 µM) of 0.488. The relative viability (IA-LM; first compound 1.265 µM) was 0.314, the relative viability (IA-LM; first compound 4 µM) was 0.542 and the relative viability (NCI-H1299; first compound 0.04 µM) was 0.999. It also gave a relative viability (NCI-H1299; first compound 0.1265 µM) of 0.97, a relative viability (NCI-H1299; first compound 0.4 µM) of 0.945 and a relative viability (NCI-H1299; first compound 1.265 µM) of 0.97. For the same compound, the relative viability (NCI-H1299; first compound 4 µM) was 1.1, the relative viability (NCI-H1703; first compound 0.04 µM) was 0.689 and the relative viability (NCI-H1703; first compound 0.1265 µM) was 0.648. The relative viability (NCI-H1703; first compound 1.265 µM) was 0.486, the relative viability (NCI-H1703; first compound 4 µM) was 1.62 and the relative viability (NCI-H2126; first compound 0.04 µM) was 0.641. The relative viability (NCI-H2126; first compound 0.1265 µM) was 0.76, the relative viability (NCI-H2126; first compound 0.4 µM) was 0.721 and the relative viability (NCI-H2126; first compound 1.265 µM) was 0.69. The relative viability (NCI-H2126; first compound 4 µM) was 0.716.

For COc1cc(N2CCC(C(N)=O)CC2)ccc1Nc1nc(N)c(Cl)c(Nc2ccccc2S(=O)(=O)C(C)C)n1 [HG-5-88-01] + Cc1nc(NC(=O)N2CCC[C@H]2C(N)=O)sc1-c1ccnc(C(C)(C)C(F)(F)F)c1 [Alpelisib] (partner 2 µM), the relative viability (A549; first compound 0.04 µM) was 0.925, the relative viability (A549; first compound 0.1265 µM) was 0.715 and the relative viability (A549; first compound 0.4 µM) was 0.698. For the same compound, the relative viability (A549; first compound 1.265 µM) was 0.474, the relative viability (A549; first compound 4 µM) was 0.527 and the relative viability (Calu-6; first compound 0.04 µM) was 1.02. For the same compound, the relative viability (Calu-6; first compound 0.1265 µM) was 1.01, the relative viability (Calu-6; first compound 0.4 µM) was 0.908 and the relative viability (Calu-6; first compound 1.265 µM) was 0.856. For the same compound, the relative viability (Calu-6; first compound 4 µM) was 0.885, the relative viability (EBC-1; first compound 0.04 µM) was 0.876 and the relative viability (EBC-1; first compound 0.1265 µM) was 0.98. It also gave a relative viability (EBC-1; first compound 0.4 µM) of 0.795, a relative viability (EBC-1; first compound 1.265 µM) of 0.768 and a relative viability (EBC-1; first compound 4 µM) of 0.86. It also gave a relative viability (IA-LM; first compound 0.04 µM) of 0.722, a relative viability (IA-LM; first compound 0.1265 µM) of 1 and a relative viability (IA-LM; first compound 0.4 µM) of 0.627. For the same compound, the relative viability (IA-LM; first compound 1.265 µM) was 0.447, the relative viability (IA-LM; first compound 4 µM) was 0.503 and the relative viability (NCI-H1299; first compound 0.04 µM) was 1.04. It also gave a relative viability (NCI-H1299; first compound 0.1265 µM) of 1.09, a relative viability (NCI-H1299; first compound 0.4 µM) of 0.972 and a relative viability (NCI-H1299; first compound 1.265 µM) of 1.05. It also gave a relative viability (NCI-H1299; first compound 4 µM) of 1.12, a relative viability (NCI-H1703; first compound 0.04 µM) of 0.265 and a relative viability (NCI-H1703; first compound 0.1265 µM) of 0.317. It also gave a relative viability (NCI-H1703; first compound 0.4 µM) of 0.38, a relative viability (NCI-H1703; first compound 1.265 µM) of 0.303 and a relative viability (NCI-H1703; first compound 4 µM) of 0.399. It also gave a relative viability (NCI-H2126; first compound 0.04 µM) of 0.81, a relative viability (NCI-H2126; first compound 0.1265 µM) of 0.79 and a relative viability (NCI-H2126; first compound 0.4 µM) of 0.774. It also gave a relative viability (NCI-H2126; first compound 1.265 µM) of 0.681 and a relative viability (NCI-H2126; first compound 4 µM) of 0.716.

With Clc1ccc(Nc2nnc(Cc3ccncc3)c3ccccc23)cc1 [Vatalanib] + CC1(C)CCC(c2ccc(Cl)cc2)=C(CN2CCN(c3ccc(C(=O)NS(=O)(=O)c4ccc(N[C@H](CCN5CCOCC5)CSc5ccccc5)c(S(=O)(=O)C(F)(F)F)c4)cc3)CC2)C1 [Navitoclax] (partner 0.5 µM) the relative viability (A549; first compound 0.04 µM) was 1.21, the relative viability (A549; first compound 0.1265 µM) was 1.33 and the relative viability (A549; first compound 0.4 µM) was 1.31. For the same compound, the relative viability (A549; first compound 1.265 µM) was 1.16, the relative viability (A549; first compound 4 µM) was 1.06 and the relative viability (Calu-6; first compound 0.04 µM) was 0.919. The relative viability (Calu-6; first compound 0.1265 µM) was 0.756, the relative viability (Calu-6; first compound 0.4 µM) was 0.913 and the relative viability (Calu-6; first compound 1.265 µM) was 0.788. The relative viability (Calu-6; first compound 4 µM) was 0.757, the relative viability (EBC-1; first compound 0.04 µM) was 0.382 and the relative viability (EBC-1; first compound 0.1265 µM) was 0.396. For the same compound, the relative viability (EBC-1; first compound 0.4 µM) was 0.46, the relative viability (EBC-1; first compound 1.265 µM) was 0.368 and the relative viability (EBC-1; first compound 4 µM) was 0.328. It also gave a relative viability (IA-LM; first compound 0.04 µM) of 0.869, a relative viability (IA-LM; first compound 0.1265 µM) of 0.701 and a relative viability (IA-LM; first compound 0.4 µM) of 0.686. It also gave a relative viability (IA-LM; first compound 1.265 µM) of 0.746, a relative viability (IA-LM; first compound 4 µM) of 0.737 and a relative viability (NCI-H1299; first compound 0.04 µM) of 1.04. It also gave a relative viability (NCI-H1299; first compound 0.1265 µM) of 1.05, a relative viability (NCI-H1299; first compound 0.4 µM) of 1.06 and a relative viability (NCI-H1299; first compound 1.265 µM) of 1.04. The relative viability (NCI-H1299; first compound 4 µM) was 1.06, the relative viability (NCI-H1703; first compound 0.04 µM) was 0.994 and the relative viability (NCI-H1703; first compound 0.4 µM) was 1.71. For the same compound, the relative viability (NCI-H1703; first compound 1.265 µM) was 0.643, the relative viability (NCI-H1703; first compound 4 µM) was 0.301 and the relative viability (NCI-H2126; first compound 0.04 µM) was 0.834. For the same compound, the relative viability (NCI-H2126; first compound 0.1265 µM) was 0.914, the relative viability (NCI-H2126; first compound 0.4 µM) was 0.851 and the relative viability (NCI-H2126; first compound 1.265 µM) was 0.801. The relative viability (NCI-H2126; first compound 4 µM) was 0.76.
